The results in this text go back to US20260053723A1, “PLAQUE DISCLOSING COMPOSITION” (AIOBIO CO, LTD., priority 2020, published 2026).

Data set [1] is described as follows: Evaluation of fluorescence intensity of RPS (Qraycam Pro images, fluorescence spectrometer). The data set is classed as physicochemical. On the procedure: (§1) Sterile distilled water (DW, (1)), gargle (GG, Soom Mouthwash, (2)), saliva (S (F-X), (3)) and filtered saliva (S(F-O), (4)) 100 mg/ml RPS stock formulation (plates were prepared after preparation by diluting at concentrations of 100 mg/mL, 50 mg/mL, 25 mg/mL, 12.5 mg/mL, 6.25 mg/ml, 3.12 mg/mL, 1.5 mg/mL, 0.78 mg/mL, 0.39 mg/mL, 0.19 mg/mL, and 0.1 mg/mL.
Each plate prepared was photographed with the Qraycam Pro (AIOBIO, Seoul, Korea) to obtain white light and blue light images. Then, fluorescence intensity was measured using a fluorescence spectrometer (Varioskan, excitation=405 nm/emission=520 nm).

Data set [2] is described as follows: Highest concentration at which RPS was completely dissolved. In kind it is physicochemical. On the procedure:
as §1
A plaque staining agent, 2-tone (2T), used in clinical practice was diluted to a concentration of 10% and set as a control group. As an experimental group, two concentrations, 50 mg/mL (the highest concentration at which RPS was completely dissolved) and 0.4 mg/mL (the strongest fluorescence intensity), were selected based on the results of Experimental Example 1 above.

SMILES strings stand for the structures.

For the compound `Cc1cc2nc3c(=O)[nH]c(=O)nc-3n(C[C@H](O)[C@H](O)[C@H](O)COP(=O)([O-])O)c2cc1C.[Na+]` [RPS, riboflavin 5-phosphate sodium], the “trend of fluorescence intensity with concentration” value in data set [1] (fluorescence spectrometer, excitation=405 nm/emission=520 nm) is “increased from 0.01 mg/mL to 0.39 mg/mL, and then decreased again”. Also, the “concentration of the maximum fluorescence intensity” value in data set [1] (fluorescence spectrometer, excitation=405 nm/emission=520 nm, all solvents (DW, gargle, saliva, filtered saliva)) is 400 µg/mL. In addition, the “fluorescence colour, visual evaluation of images” value in data set [1] (shift from high concentration (100 mg/mL) to low concentration) is recorded as “red fluorescence was converted to green fluorescence”. For the same compound, the “difference in fluorescence between solvents, visual evaluation” value in data set [1] (white light and blue light images, DW, gargle, saliva, filtered saliva) is “no difference in fluorescence was observed between solvents”. Further, the “highest concentration at which RPS was completely dissolved” value in data set [2] was 50 mg/mL.
